Literature values as cited in patent publication US20110092602A1 (priority 2008, published 2011).
Like-named read-outs stand apart in the source and are kept apart here.

How the values were obtained:
[1] = pH 7
[2] = not given; remark: listed apart in the source

Row | Compound | affinity of binding to μ-opioid receptors (μ-opioid receptors) | antagonism of analgesia by the opiate antagonist naloxone (several animals tests) | n-octanol/water log partition coefficient (logP) [1] | solubility ([2]; ethanol) | solubility ([2]; water) | potency in μ-opioid binding relative to tramadol (μ-opioid receptors; animal models) [times] | potency in producing analgesia relative to tramadol (animal models)
1 | COc1cccc(C2(O)CCCCC2CN(C)C)c1 (centres unmarked) [Tramadol, 2-dimethylaminomethyl-1-(3-methoxyphenyl)cyclohexanol] | low affinity | only partially antagonized |  |  |  |  | 
2 | COc1cccc([C@]2(O)CCCC[C@H]2CN(C)C)c1.Cl (racemic) [Tramadol hydrochloride, (±)cis-2-[(dimethylamino)methyl]-1-(3-methoxyphenyl)cyclohexanol hydrochloride] |  |  | 1.35 | readily soluble | readily soluble |  | 
3 | CN(C)C[C@H]1CCCC[C@]1(O)c1cccc(O)c1 [Example M1] | higher affinity |  |  |  |  | 200 | up to 6 times
